Data reported in patent US8343458B2, “Probes for in vivo targeting of active cysteine proteases” (The Board of Trustees of the Leland Stanford Junior …, priority 2008, dated 2013).
Where “and” joins values, the source holds several entries; their conditions need not be identical. Equal values may be shown once.

Columns and labels:
[1] = system: MDA-MB-435 tumor; experiment: MicroPET imaging of MDA-MB-435 tumor-bearing mice; type: in vivo, mouse; settings: MDA-MB-435 tumor, 1, 4 and 28 hours post injection
Source text: FIG. 3 is a composite photograph showing mouse uptake of labeled probe, i.e., a series of photographs of imaged mice. For purposes of reproduction, the image is converted to black and white and reversed. Lightest to darkest is a range between 0% ID (injected dose)/g and 1% ID/g. […] Arrows indicate location of tumors.
We performed micro PET imaging of mice bearing the MDA-MB-435 and C2C12/Ras tumors. The static microPET images (5 or 10-min scan, three tumor bearing mice were used for each study) of ^64Cu-Z-FK(DOTA)-AOMK are illustrated in coronal images of the subcutaneously implanted tumor-bearing mice (FIG. 3). […] The tumor, indicated by the arrow, is not clearly illuminated.
PET imaging of tumor-bearing mice is performed on a microPET R4 rodent model scanner (Concorde Microsystems Inc, Knoxyille, Tenn.). The mice bearing C2C12/Ras and MDA-MB-435 tumors were injected with 5.55 MBq (150 μCi) of ^64Cu AOMK probe via the tail vein. At different times p.i., the mice were anesthetized with 2% isoflurane, and placed in the prone position and near the center of the field of view of microPET. The 5 or 10-min static scans were obtained and the images were reconstructed by a two-dimensional ordered subsets expectation maximum (OSEM) algorithm.

[2] = Octanol/water partition coefficient; type: physicochemical; settings: octanol / PBS pH 7.4, repeated 3 times
Method: Octanol/water partition coefficient. To determine the lipophilicity of ^64Cu-Z-FK(DOTA)-AOMK, approximately 370 kBq of ^64Cu-labeled complex in 500 μl of PBS (pH 7.4) was added to 500 μl of octanol in an eppendorf microcentrifuge tube. The resulting biphasic system was mixed vigorously for 10 min and left at room temperature for another 60 min. The two phases were then separated by centrifugation at 2000 g for 5 min (model 5415R Eppendorf microcentrifuge; Brinkman, Westbury, N.Y.). From each layer, an aliquot of 100 μl was removed and counted in a γ-counter (Packard Instruments). The partition coefficient (log P) was then calculated as a ratio of counts in the octanol fraction to the counts in the water fraction. The experiment was repeated 3 times. The lipophilicity of the probe affects its in vivo pharmacokinetics, and should be modest (˜0), with hydrophobic and hydrophilic groups present. For further details, see Lin et al., “Role of Pharmacokinetics and Metabolism in Drug Discovery and Development,” Pharmacological Reviews, Vol. 49, Issue 4, 403-449, December 1997.

[3] = system: MDA-MB-435 tumors; experiment: Biodistribution in nude mice bearing subcutaneous MDA-MB-435 tumors; type: in vivo, mouse; settings: for Biodistribution: Blood / Biodistribution: Bone / Biodistribution: Brain / Biodistribution: Heart / Biodistribution: Intestines / Biodistribution: Kidney / Biodistribution: Liver / Biodistribution: Lung / Biodistribution: Muscle / Biodistribution: Pancreas / Biodistribution: Spleen / Biodistribution: Stomach / Biodistribution: Tumor / Tumor/Blood ratio / Tumor/Muscle ratio: MDA-MB-435 tumor mice, i.v. 740 kBq
Method: All animal studies were carried out in compliance with Federal and local institutional rules for the conduct of animal experimentation. Female athymic nude mice (nu/nu) were obtained from Charles River Laboratories (Boston, Mass.) at 7-8 weeks old and kept under sterile conditions. The nude mice were inoculated subcutaneously in the right shoulder with 2×10^6 cultured C2C12/Ras cells or 5×10^6 MDA-MB-435 cells. When the tumors reach 0.5-0.8 cm in diameter, the tumor bearing mice were subjected to in vivo biodistribution studies. For biodistribution studies, the mice bearing C2C12/Ras or MDA-MB-435 tumor xenografts (n=3 for each group) were injected with 740 KBq (20 μCi) of ^64Cu labeled tracer through the tail vein and sacrificed at different time points post injection (p.i.). Tumor and normal tissues of interest were removed and weighed, and their radioactivity was measured in a gamma-counter. The radioactivity uptake in the tumor and normal tissues was expressed as a percentage of the injected radioactive dose per gram of tissue (% ID/g).
We next examined the overall biodistribution of ^64Cu-Z-FK(DOTA)-AOMK using athymic nude mice carrying subcutaneously grafted C2C12/Ras and MDA-MB-435 tumors. […] Importantly, we observed rapid accumulation of radioactivity in the C2C12/Ras tumors expressing high levels of cysteine cathepsins (0.35±0.13% ID/g at 0.5 h p.i.). This activity remained in the tumors resulting in an uptake of 0.27±0.05% ID/g at 24 h p.i. For the MDA-MB-435 tumors with lower cysteine cathepsin expression, tumor uptake was approximately 2 fold lower at each time point relative to the C2C12/Ras tumors (P<0.05). […] The highest radioactivity was found in the liver due to high endogenous expression of various cysteine cathepsins. Moderate renal accumulation was also observed at all times in both tumor models.
Data are expressed as the percentage administered activity (injected dose) per gram of tissue (% ID/g) after intravenous injection of 740 kBq (20 μCi) of ^64Cu-Z-FK(DOTA)-AOMK at 0.5, 2, and 24 h pi (n=3). Significant lower tumor uptake and tumor/blood, tumor/muscle ratio in MDA-MB-435 breast cancer (P<0.05) were observed.

Cc1cccc(C)c1C(=O)OCC(=O)[C@H](CCCCNC(=O)CN1CCN(CC(=O)[O-])CCN(CC(=O)O)CCN(CC(=O)[O-])CC1)NC(=O)[C@H](Cc1ccccc1)NC(=O)OCc1ccccc1.[64Cu+2] [^64Cu-Z-FK(DOTA)-AOMK]
MicroPET tumor visualization / contrast [1]: low tumor uptake and poor tumor to normal tissue contrast
log P (octanol-water partition coefficient) [2]: −0.10±0.04
Biodistribution: Blood ([3]; 2 h p.i.): 0.29 ± 0.01 % ID/g
Biodistribution: Bone ([3]; 2 h p.i.): 0.18 ± 0.06 % ID/g
Biodistribution: Brain ([3]; 2 h p.i.): 0.04 ± 0.01 % ID/g
Biodistribution: Heart ([3]; 2 h p.i.): 0.43 ± 0.09 % ID/g
Biodistribution: Intestines ([3]; 2 h p.i.): 1.95 ± 1.24 % ID/g
Biodistribution: Kidney ([3]; 2 h p.i.): 1.11 ± 0.05 % ID/g
Biodistribution: Liver ([3]; 2 h p.i.): 2.64 ± 0.08 % ID/g
Biodistribution: Lung ([3]; 2 h p.i.): 0.72 ± 0.08 % ID/g
Biodistribution: Muscle ([3]; 2 h p.i.): 0.06 ± 0.00 % ID/g
Biodistribution: Pancreas ([3]; 2 h p.i.): 0.25 ± 0.05 % ID/g
Biodistribution: Spleen ([3]; 2 h p.i.): 0.31 ± 0.05 % ID/g
Biodistribution: Stomach ([3]; 2 h p.i.): 0.45 ± 0.07 % ID/g
Biodistribution: Tumor ([3]; 2 h p.i.): 0.18 ± 0.00 % ID/g
Tumor/Blood ratio ([3]; 2 h p.i.): 0.61 and 0.61 ± 0.02
Tumor/Muscle ratio ([3]; 2 h p.i.): 3.03 and 3.03 ± 0.20
Biodistribution: Blood ([3]; 24 h p.i.): 0.28 ± 0.13 % ID/g
Biodistribution: Bone ([3]; 24 h p.i.): 0.20 ± 0.20 % ID/g
Biodistribution: Brain ([3]; 24 h p.i.): 0.05 ± 0.01 % ID/g
Biodistribution: Heart ([3]; 24 h p.i.): 0.42 ± 0.15 % ID/g
Biodistribution: Intestines ([3]; 24 h p.i.): 0.35 ± 0.08 % ID/g
Biodistribution: Kidney ([3]; 24 h p.i.): 0.63 ± 0.08 % ID/g
Biodistribution: Liver ([3]; 24 h p.i.): 1.37 ± 0.19 % ID/g
Biodistribution: Lung ([3]; 24 h p.i.): 0.47 ± 0.08 % ID/g
Biodistribution: Muscle ([3]; 24 h p.i.): 0.06 ± 0.02 % ID/g
Biodistribution: Pancreas ([3]; 24 h p.i.): 0.18 ± 0.11 % ID/g
Biodistribution: Spleen ([3]; 24 h p.i.): 0.31 ± 0.21 % ID/g
Biodistribution: Stomach ([3]; 24 h p.i.): 0.34 ± 0.29 % ID/g
Biodistribution: Tumor ([3]; 24 h p.i.): 0.14 ± 0.05 % ID/g
Tumor/Blood ratio ([3]; 24 h p.i.): 0.54 ± 0.12
Tumor/Muscle ratio ([3]; 24 h p.i.): 2.21 ± 0.34
Tumor uptake in MDA-MB-435 tumors, fold lower relative to C2C12/Ras tumors ([3]; at each time point (2 h, 24 h), P<0.05): approximately 2 fold
